Data from the supplement of paper PMC13380429.

Legend:
Conditions in all cases: 72 h
[1] = tested on: HepG2; experiment: relative viability EC50 (midpoint between 100% and the lowest measured viability); higher = less toxic
[2] = tested on: Calu-3; experiment: as above
[3] = tested on: U2OS; experiment: as above
[4] = tested on: Caco-2; experiment: as above
[5] = tested on: Vero E6; experiment: as above
[6] = tested on: HepG2; experiment: cell viability relative to DMSO; higher = less toxic
[7] = tested on: Calu-3; experiment: as above
[8] = tested on: U2OS; experiment: as above
[9] = tested on: Caco-2; experiment: as above
[10] = tested on: Vero E6; experiment: as above
[11] = tested on: HepG2; experiment: drug sensitivity score (DSS) for viability; higher = more toxic; extreme values may be limits of the assay
[12] = tested on: Calu-3; experiment: as above
[13] = tested on: U2OS; experiment: as above
[14] = tested on: Caco-2; experiment: as above
[15] = tested on: Vero E6; experiment: as above

Structure (SMILES)	relative viability EC50 [1] [µM]	relative viability EC50 [2] [µM]	relative viability EC50 [3] [µM]	relative viability EC50 [4] [µM]	relative viability EC50 [5] [µM]	cell viability ([6]; 1 nM) [%]	cell viability ([6]; 10 nM) [%]	cell viability ([6]; 100 nM) [%]	cell viability ([6]; 1000 nM) [%]	cell viability ([6]; 10000 nM) [%]	cell viability ([7]; 1 nM) [%]	cell viability ([7]; 10 nM) [%]	cell viability ([7]; 100 nM) [%]	cell viability ([7]; 1000 nM) [%]	cell viability ([7]; 10000 nM) [%]	cell viability ([8]; 1 nM) [%]	cell viability ([8]; 10 nM) [%]	cell viability ([8]; 100 nM) [%]	cell viability ([8]; 1000 nM) [%]	cell viability ([8]; 10000 nM) [%]	cell viability ([9]; 1 nM) [%]	cell viability ([9]; 10 nM) [%]	cell viability ([9]; 100 nM) [%]	cell viability ([9]; 1000 nM) [%]	cell viability ([9]; 10000 nM) [%]	cell viability ([10]; 1 nM) [%]	cell viability ([10]; 10 nM) [%]	cell viability ([10]; 100 nM) [%]	cell viability ([10]; 1000 nM) [%]	cell viability ([10]; 10000 nM) [%]	drug sensitivity score [11]	drug sensitivity score [12]	drug sensitivity score [13]	drug sensitivity score [14]	drug sensitivity score [15]
CN1CCN(CC(=O)N2c3ccccc3C(=O)Nc3cccnc32)CC1 [pirenzepine]	> 10	> 10	> 10	> 10	> 10	113	99.9	88.9	103	97.7	97.5	87.3	104	96.3	103	96.1	93.8	99.6	98.7	101	85.5	103	99.9	93.9	95	103	101	98.4	103	102	0	0	0	0	0
NS(=O)(=O)c1cc(C(=O)O)cc(N2CCCC2)c1Oc1ccccc1 [piretanide]	> 10	> 10	> 10	> 10	> 10	101	99.7	85.1	105	110	90	98.7	90.5	94.8	101	95.5	96.7	101	98.4	103	90.2	97.4	106	104	110	98.5	100	93.3	101	105	0	0	0	0	0
CC(C)(C)c1[nH]cnc1/C=c1\[nH]c(=O)/c(=C/c2ccccc2)[nH]c1=O [plinabulin]	0.0668	0.0465	0.0591	0.123	0.0633	108	97.1	50.1	25.5	30.9	102	87.9	56.8	40.7	36.6	101	94.9	45.3	22.3	20.6	107	89.1	68.6	53.5	37.6	106	101	32.7	11.7	11.4	19.7	17.3	21.3	13.1	23.9
Nc1cccc2c1C(=O)N(C1CCC(=O)NC1=O)C2=O (stereo not given) [pomalidomide]	> 10	> 10	> 10	> 10	> 10	104	104	98.5	101	111	106	103	103	105	90.9	99	97.3	104	96.1	98.4	86	85	103	95	98.3	93.5	97.1	89.2	99.4	103	0	0	0	0	0
COC(=O)C1=C(C)NC(C)=C(C(=O)OC/C=C/c2ccccc2)C1c1cccc([N+](=O)[O-])c1 (stereo not given) [pranidipine]	> 10	> 10	> 10	> 10	> 10	97.1	102	107	103	95.1	103	101	99.7	91.7	91.8	98.1	93	99.6	95.5	94.8	101	80	97	91.5	92.6	93.8	103	83.1	95.1	96.9	0	0	0	0	0
CCC1(CC)C(=O)C=CNC1=O [pyrithyldione]	> 10	> 10	> 10	> 10	> 10	91	92	94.9	104	95.1	93.1	94.1	99.5	99.9	96.7	98.2	95	97.8	95.1	96.6	100	93.1	93.4	92.3	102	93.5	107	97.5	102	93.6	0	0	0	0	0
CCC1NC(=O)c2cc(S(N)(=O)=O)c(Cl)cc2N1 (stereo not given) [quinethazone]	> 10	> 10	> 10	> 10	> 10	110	103	103	92.6	93.1	101	94.8	97.5	91.2	95.1	91.9	100	93.3	101	105	94.3	108	96.4	97.4	82.9	106	86.7	103	100	98.6	0	0	0	0.7	0
